According to patent publication US5232923A, “Catechol derivatives and pharmaceutical preparations containing same” (Mitsui Toatsu Chemicals, Incorporated, priority 1988, dated 1993):
Like-named read-outs stand apart in the source and are kept apart here.

Test system: production and secretion of NGF in mouse L-M cells
Assay: Promoting activity for the production and secretion of NGF in mouse L-M cells (ELISA of medium after 24 h)
Format: cell-based
Details: for fold induction at 200 µM: Mus musculus, 24 h, read-out: NGF Increase Ratio; for NGF Concentration: 24 hours, mean of four determinations
Protocol: Promoting activity for the production and secretion of NGF in mouse L-M cells
The medium was cultured for 3 days at a temperature of 37° C. […] The sample of the derivative tested is contained in the medium at a prescribed concentration as illustrated in the Tables. […] Data are expressed as fold increase in NGF content of the medium over that cultivated in the absence of the derivative to be tested. […] Data are presented as the mean of four determinations. The results are illustrated in Tables 1-5.

[1] = Table 2, L-M cells, sample concentration 0.2 mM, fold increase over control (1.00)
[2] = Table 2, L-M cells, sample concentration 0.2 mM, control 0.34
[3] = Table 1, L-M cells, sample concentration 0.2 mM, fold increase over control (1.00)
[4] = Table 1, L-M cells, sample concentration 0.2 mM, control 0.33

Compound	fold induction at 200 µM [1]	NGF Concentration [2] [ng/well]	fold induction at 200 µM [3]	NGF Concentration [4] [ng/well]	fold induction at 200 µM
CCCOC(=O)CCc1ccc(O)c(O)c1 [Compound 36]	5.53	1.88			
CC(=O)NCc1ccc(O)c(O)c1 [Compound 4]			7.88	2.60	
CNCc1ccc(O)c(O)c1 [Compound 22]			9	2.97	
NCCc1ccc(O)c(O)c1 [Comparative compound, reference compound]				1.30	3.94
CCCOC(=O)CCCc1ccc(O)c(O)c1 [Compound 44]	5.62	1.91			
CCC(=O)N(C)CCc1ccc(O)c(O)c1 [Compound 11]			10.1	3.32	
CCCOC(=O)CCc1ccc(OC(C)=O)c(OC(C)=O)c1 [Compound 48]	6.26	2.13			
CC(=O)Oc1ccc(CCN(C)C)cc1OC(C)=O [Compound 30]				3.80	11.5
CCCOC(=O)Cc1ccc(OC(C)=O)c(OC(C)=O)c1 [Compound 52]	5.53	1.88			
CCCCNC(=O)CCCc1ccc(O)c(O)c1 [Compound 71]	5.71	1.83			
CC(=O)NCc1ccc(OC(C)=O)c(OC(C)=O)c1 [Compound 16]			8.24	2.72	
CC(=O)Oc1ccc(CC(N)=O)cc1OC(C)=O [Compound 75]	5.53	2.03			
COC(=O)CCCc1ccc(OC(C)=O)c(OC(C)=O)c1 [Compound 54]	5.53	1.88			
CCC(=O)NCCc1ccc(OC(C)=O)c(OC(C)=O)c1 [Compound 14]			10.6	3.49	
CCCCNC(=O)Cc1ccc(OC(C)=O)c(OC(C)=O)c1 [Compound 77]	5.26	1.86			
CCC(=O)NCCc1ccc(O)c(O)c1 [Compound 2]			9.39	3.10	
CCCC(=O)NCCCc1ccc(O)c(O)c1 [Compound 9]			8.33	2.75	
COC(=O)Cc1ccc(O)c(O)c1 [Compound 38]	4.79	1.63			
CCCNC(=O)Cc1ccc(O)c(O)c1 [Compound 65]	5.21	1.77			
CCCCNC(=O)CCCc1ccc(OC(C)=O)c(OC(C)=O)c1 [Compound 80]	5.74	1.95			
COC(=O)CCCc1ccc(O)c(O)c1 [Compound 42]	5.32	1.81			
CNC(=O)CCc1ccc(O)c(O)c1 [Compound 59, N-Methyl-3,4-dihydroxyphenylpropionamide]	5.62	1.91			
NC(=O)CCCc1ccc(O)c(O)c1 [Compound 67]	4.97	1.69			
CCCNC(=O)CCc1ccc(O)c(O)c1 [Compound 61]	5.91	2.01			
CCCCOC(=O)CCCc1ccc(O)c(O)c1 [Compound 45]	5.41	1.84			

Compound	fold induction at 200 µM [1]	NGF Concentration [2] [ng/well]	fold induction at 200 µM [3]	NGF Concentration [4] [ng/well]	fold induction at 200 µM
CCCCOC(=O)Cc1ccc(OC(C)=O)c(OC(C)=O)c1 [Compound 53]	4.79	1.63			
COC(=O)Cc1ccc(OC(C)=O)c(OC(C)=O)c1 [Compound 50]	5.09	1.73			
CCNCc1ccc(O)c(O)c1 [Compound 23]			9.33	3.08	
CCCCNC(=O)Cc1ccc(O)c(O)c1 [Compound 66]	5.85	1.99			
CCCOC(=O)CCCc1ccc(OC(C)=O)c(OC(C)=O)c1 [Compound 56]	5.09	1.73			
CC(=O)Oc1ccc(CCCC(N)=O)cc1OC(C)=O [Compound 78]	4.94	1.79			
CCCNCCCc1ccc(O)c(O)c1 [Compound 28]			8.45	2.79	
CCC(=O)NCCCc1ccc(O)c(O)c1 [Compound 8]			8.79	2.90	
CCNCCCc1ccc(O)c(O)c1 [Compound 27]			8.76	2.89	
CCCCOC(=O)Cc1ccc(O)c(O)c1 [Compound 41]	5.26	1.79			
CNC(=O)CCCc1ccc(O)c(O)c1 [Compound 68]	5.09	1.73			
CCCNCCc1ccc(O)c(O)c1 [Compound 20]				3.62	11
NC(=O)Cc1ccc(O)c(O)c1 [Compound 62]	4.79	1.63			
CCCOC(=O)Cc1ccc(O)c(O)c1 [Compound 40]	5.41	1.84			
CCCC(=O)NCc1ccc(O)c(O)c1 [Compound 6]			8.94	2.95	
CCC(=O)NCc1ccc(O)c(O)c1 [Compound 5]			8.33	2.75	
CC(=O)Oc1ccc(CCN(C)C(C)=O)cc1OC(C)=O [Compound 18]			12	3.95	
CCCNCc1ccc(O)c(O)c1 [Compound 24]			8.91	2.94	
CCN(C)CCc1ccc(OC(C)=O)c(OC(C)=O)c1 [Compound 31]				3.76	11.4
CCCCOC(=O)CCCc1ccc(OC(C)=O)c(OC(C)=O)c1 [Compound 57]	5.32	1.81			
CCCNC(=O)CCCc1ccc(O)c(O)c1 [Compound 70]	5.38	1.83			
CNC(=O)Cc1ccc(O)c(O)c1 [Compound 63]	5.82	1.98			
CCCCNCc1ccc(O)c(O)c1 [Compound 25]			8.82	2.91	
COC(=O)CCc1ccc(OC(C)=O)c(OC(C)=O)c1 [Compound 46]	5.91	2.01			
COC(=O)CCc1ccc(O)c(O)c1 [Compound 34]	5.79	1.97			
